# According to PMC10539329, “NLRP6 potentiates PI3K/AKT signalling by promoting autophagic degradation of p85α to drive tumorigenesis” (Nature Communications, 2023):
# Experiments:
# recombinant NLRP6 = target: T1, recombinant NLRP6 (Homo sapiens, UniProt P59044); test: Biolayer interferometry (BLI) binding of peptides to recombinant NLRP6; conditions: 30 °C, PBS with 0.01% Tween-20
# T1 construct: DNA encoding full-length NLRP6 was codon optimized; His (N); MBP (N); made in house; host or cells: E. coli (DE3)
# T1 sequence (P59044 1-892): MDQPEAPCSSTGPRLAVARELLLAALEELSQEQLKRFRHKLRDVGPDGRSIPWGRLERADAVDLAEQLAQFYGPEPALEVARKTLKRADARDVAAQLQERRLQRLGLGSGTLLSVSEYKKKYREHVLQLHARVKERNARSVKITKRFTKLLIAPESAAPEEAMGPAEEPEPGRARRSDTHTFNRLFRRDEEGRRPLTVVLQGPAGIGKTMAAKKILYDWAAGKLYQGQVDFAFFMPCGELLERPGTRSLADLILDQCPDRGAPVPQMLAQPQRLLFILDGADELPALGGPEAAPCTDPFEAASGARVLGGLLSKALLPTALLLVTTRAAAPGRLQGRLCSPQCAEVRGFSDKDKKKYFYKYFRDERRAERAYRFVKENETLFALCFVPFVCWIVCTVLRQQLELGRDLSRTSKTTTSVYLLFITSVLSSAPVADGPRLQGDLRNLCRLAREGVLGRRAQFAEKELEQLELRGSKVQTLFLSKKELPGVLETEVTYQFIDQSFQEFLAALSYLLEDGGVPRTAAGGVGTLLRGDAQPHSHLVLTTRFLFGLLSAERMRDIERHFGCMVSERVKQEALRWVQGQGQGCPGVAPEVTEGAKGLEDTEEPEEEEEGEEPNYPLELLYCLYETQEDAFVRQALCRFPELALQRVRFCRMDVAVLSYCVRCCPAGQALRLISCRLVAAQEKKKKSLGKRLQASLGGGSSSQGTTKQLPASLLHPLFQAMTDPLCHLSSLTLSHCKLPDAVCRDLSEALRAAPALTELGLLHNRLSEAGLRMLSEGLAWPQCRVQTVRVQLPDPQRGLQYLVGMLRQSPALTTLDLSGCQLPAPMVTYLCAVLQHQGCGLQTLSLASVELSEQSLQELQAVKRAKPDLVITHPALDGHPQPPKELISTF
# Protocol: DNA encoding full-length NLRP6 was codon optimized and chemically synthesized by Genewiz (Soochow, China). The DNA sequence was subcloned into NdeI-XhoI sites of a pDB-His-MBP vector (kindly given by Pro. Chenggui Han, China Agricultural University, Beijing, China). Recombinant NLRP6 protein was expressed and purified following previous reports, with slight modifications. Briefly, the protein was expressed in E. coli (DE3) at 16 °C with 0.5 mM IPTG induction overnight. Then, the protein was purified by Ni affinity and gel filtration chromatography. The p85α WT and p85α mutant sequences were chemically synthesized and subcloned into BamHI-XhoI sites of a pGEX-6P-1 plasmid by GenScript (Nanjing, China). The E. coli (DE3) transformed with the plasmids were grown in LB medium at 37 °C. The culture medium was supplemented with 0.5 mM IPTG followed by incubation at 16 °C for 16–18 h. […] The protein extinction coefficient was calculated by ProtParam, and the protein concentration was determined by the ultraviolet spectrophotometry method.
# Eleven α-helical peptides were synthesized (Supplementary Data 7). […] The interaction between the peptides and NLRP6 was determined by BLI using an Octet Red 96 instrument (FortéBio, CA, USA). […] Responses (nanometre shift) were calculated using data that were double reference subtracted using reference wells and nonspecific binding of the biosensor to the analyte. […]
# [1] = tested on: nude mice with intracranially implanted tumour cells; test: Survival of nude mice with intracranial tumour after intratumoural peptide; type: in vivo, BALB/c nude mice; conditions: 0.25 mg/kg per injection (PepC, Pep9 H)
# Protocol: BALB/c nude mice were maintained and bred in a specific-pathogen free (SPF) environment, adhering to standard conditions of temperature (20–26 °C) and humidity (40–70%). They were subjected to a strict 12-h light cycle, with lights on at 08:00 a.m. and off at 08:00 p.m. No limitations were imposed on the sex of the experimental animals involved in this study. Cells expressing firefly luciferase mixed with Matrigel (Corning, NY, USA) were intracranially injected into 5- to 6-week-old female athymic nude mice. The intracranial injection point was at the cerebral cortex, 1 mm prior to coronal suture, 1 mm on the right side of the centreline, and 3 mm below the dura mater. Appropriate medications were provided to reduce pain. To monitor intracranial tumour growth, the animals were intraperitoneally injected with D-luciferin (Yeasen, #40902ES01) and anaesthetized with isoflurane. The images were captured using an In Vivo MS FX pro Imaging System (Bruker, MA, USA) or IVIS Lumina imaging station (Perkin Elmer, MA, USA). The results were reported as the total flux (photons/second). The mice were sacrificed at the indicated time points. The brains were removed, fixed in 4% paraformaldehyde, and embedded in paraffin.
# To determine the antitumour effect of the peptide in vitro, the peptide was incubated with cells for 24 h when the cells were grown to approximately 80% confluence. Cell viability was measured at the indicated time points. The cell lysates were collected for immunoprecipitation as described above. To determine the antitumour effect of the peptide in vivo, the peptide was stereotactically injected using identical coordinates of tumour implantation in 3 μl of PBS. Briefly, 3 weeks after intracranial tumour cell implantation, mice with similar tumour sizes and similar weights were selected and randomly arranged into five groups (n = 6): PBS, PepC (0.25 mg/kg TAT-PepC per injection), Pep9 low dose (Pep9 L, 0.05 mg/kg TAT-Pep9 per injection), Pep9 medium dose (Pep9 M, 0.1 mg/kg TAT-Pep9 per injection), and Pep9 high dose (Pep9 H, 0.25 mg/kg TAT-Pep9 per injection). Each mouse received intratumoural injection every 10 days (at Day 21, Day 31, Day 41, and Day 51), and tumour growth was monitored at Day 21, Day 41, and Day 56. The experiment was terminated at Day 80, and all the mice (if they were alive) were sacrificed as previously described.
sequence,measurement,setting,value
"SAEGYQYRALYD [Pep1, peptide found on the p85α SH3 domain; selected as the control named PepC]",binding to NLRP6 (in words),recombinant NLRP6,did not interact with NLRP6
same,nude mice survival,"[1]; terminated Day 80, mouse 1",60 days
same,nude mice survival,"[1]; terminated Day 80, mouse 2",61 days
same,nude mice survival,"[1]; terminated Day 80, mouse 3, >= is status 0 (live)",59 days
same,nude mice survival,"[1]; terminated Day 80, mouse 4, >= is status 0 (live)",58 days
same,nude mice survival,"[1]; terminated Day 80, mouse 5, >= is status 0 (live)",58 days
same,nude mice survival,"[1]; terminated Day 80, mouse 6, >= is status 0 (live)",62 days
